Source: patent publication US3932646A, “Pharmaceutical compositions containing unsymmetrical esters of 1,4-dihydropyridine 3,5-dicarboxylate” (Farbenfabriken Bayer AG, priority 1971, dated 1976)

Key:
Assay type in all cases: in vivo
hypertensive rat = assay: Blood pressure effect on hypertensive rat p.o.; conditions: given as "from" dose; for minimal effective dose: po, read-out: Blood pressure effect on hypertensive rat (dose from which the effect is seen)
From the text: (§1) The pharmacological properties of these compounds are conveniently observed in well-known animal models which parallel the desired clinical response. Similarly toxicity is low, as measured for example in the conventional LD50 determination.

[1] = Toxicity (Mouse), conventional LD50 determination p.o.; conditions: in vivo, po
From the text: as §1

coronary vessels = assay: Dosage at which a coronary effect is observed, i.v.; conditions: for minimal effective dose: iv
Mouse = assay: Toxicity (Mouse), conventional LD50 determination p.o.
From the text: as §1

Row | SMILES | minimal effective dose (hypertensive rat) [mg/kg] | LD50 [1] [mg/kg] | minimal effective dose (coronary vessels) [mg/kg] | Toxicity (Mouse) LD50 (Mouse) [mg/kg] | Dose at which a coronary effect is observed (coronary vessels) [mg/kg] | Blood pressure effect on hypertensive rat (dose from which the effect is seen) (hypertensive rat) [mg/kg]
1 | C=CCOC(=O)C1=C(C)NC(C)=C(C(=O)OCC)C1c1ccccc1C (stereo not shown) [Example 1, 2,6-dimethyl-4-(2'-methylphenyl)-1,4-dihydropyridine-3,5-dicarboxylic acid 3-ethyl ester-5-allyl ester] | ≥ 10 | > 3000 | 0.05 | – | – | –
2 | C#CCOC(=O)C1=C(C)NC(C)=C(C(=O)OCC)C1c1ccccc1C (stereo not shown) [Example 2, 2,6-dimethyl-4-(2'-methylphenyl)-1,4-dihydropyridine-3,5-dicarboxylic acid 3-ethyl ester-5-propargyl ester] | ≥ 10 | 800 | 0.01 | – | – | –
3 | C=CCOC(=O)C1=C(C)NC(C)=C(C(=O)OC)C1c1ccccc1F (stereo not shown) [Example 3, 2,6-dimethyl-4-(2'-fluorophenyl)-1,4-dihydropyridine-3,5-dicarboxylic acid 3-methyl ester-5-allyl ester] | ≥ 3.1 | 800 | 0.01 | – | – | –
4 | C#CCOC(=O)C1=C(C)NC(C)=C(C(=O)OCC)C1c1ccccc1C(F)(F)F (stereo not shown) [Example 4, 2,6-dimethyl-4-(2'-trifluoromethylphenyl)-1,4-dihydropyridine-3,5-dicarboxylic acid 3-ethyl ester-5-propargyl ester] | ≥ 1 | – | – | 200 | 0.005 | –
5 | C=CCOC(=O)C1=C(C)NC(C)=C(C(=O)OCC)C1c1ccccc1C(F)(F)F (stereo not shown) [Example 5, 2,6-dimethyl-4-(2'-trifluoromethylphenyl)-1,4-dihydropyridine-3,5-dicarboxylic acid 3-ethyl ester-5-allyl ester] | ≥ 3.1 | 630 | 0.001 | – | – | –
6 | C#CCOC(=O)C1=C(C)NC(C)=C(C(=O)OC)C1c1ccccc1C(F)(F)F (stereo not shown) [Example 6, 2,6-dimethyl-4-(2'-trifluoromethylphenyl)-1,4-dihydropyridine-3,5-dicarboxylic acid 3-methyl ester-5-propargyl ester] | ≥ 0.3 | 200 | 0.005 | – | – | –
7 | CCCOCCOC(=O)C1=C(C)NC(C)=C(C(=O)OCC)C1c1ccccc1OC (stereo not drawn) [Example 7, 2,6-dimethyl-4-(2'-methoxyphenyl)-1,4-dihydropyridine-3,5-dicarboxylic acid 3-ethyl ester-5-β-propoxyethyl ester] | ≥ 31.5 | > 3000 | 0.05 | – | – | –
8 | C=CCOC(=O)C1=C(C)NC(C)=C(C(=O)OCC)C1c1ccccc1Cl (stereo not shown) [Example 8, 2,6-dimethyl-4-(2'-chlorophenyl)-1,4-dihydropyridine-3,5-dicarboxylic acid 3-ethyl ester-5-allyl ester] | ≥ 1 | 630 | 0.01 | – | – | –
9 | C=CCOC(=O)C1=C(C)NC(C)=C(C(=O)OCC)C1c1ccc(OC)c(OC)c1OC (stereo not shown) [Example 9, 2,6-dimethyl-4-(2', 3', 4'-trimethoxyphenyl)-1,4-dihydropyridine-3,5-dicarboxylic acid 3-ethyl ester-5-allyl ester] | – | 3000 | – | – | – | –
10 | C=CCOC(=O)C1=C(C)NC(C)=C(C(=O)OC)C1c1cc(Br)c(OC)c(OC)c1 (stereo not shown) [Example 10, 2,6-dimethyl-4-(3', 4'-dimethoxy-5-bromophenyl)-1,4-dihydropyridine-3,5-dicarboxylic acid 3-methyl ester-5-allyl ester] | – | > 3000 | 5 | – | – | –
11 | C#CCOC(=O)C1=C(C)NC(C)=C(C(=O)OC)C1c1ccccc1OC (stereo not shown) [Example 11, 2,6-dimethyl-4-(2'-methoxyphenyl)-1,4-dihydropyridine-3,5-dicarboxylic acid 3-propargyl ester 5-methyl ester] | ≥ 10 | > 3000 | 0.05 | – | – | –
12 | C#CCOC(=O)C1=C(C)NC(C)=C(C(=O)OC)C1c1ccccc1C(F)(F)F (stereo not shown) [Example 12, 2,6-dimethyl-4-(2'-trifluoromethylphenyl)-1,4-dihydropyridine 3,5-dicarboxylic acid 3-propargyl ester 5-methyl ester] | – | – | – | 100 | 0.003 | ≥ 0.3
13 | C#CCOC(=O)C1=C(C)NC(C)=C(C(=O)OCC)C1c1ccccc1C(F)(F)F (stereo not shown) [Example 13, 2,6-dimethyl-4-(2'-trifluoromethylphenyl)-1,4-dihydropyridine-3,5-dicarboxylic acid 3-propargyl ester 5-ethyl ester] | – | – | – | 2000 | 0.05 | ≥ 1.0
14 | CCOC(=O)C1=C(C)NC(C)=C(C(=O)OCCOC)C1c1ccccc1Cl (stereo not drawn) [Example 14, 2,6-dimethyl-4-(2'-chlorophenyl)-1,4-dihydropyridine 3,5-dicarboxylic acid 3-β-methoxyethyl ester 5-ethyl ester] | ≥ 3.1 | 1000 | 0.01 | – | – | –
15 | C=CCOC(=O)C1=C(C)NC(C)=C(C(=O)OC(C)C)C1c1cccc(C(F)(F)F)c1 (stereo not shown) [Example 15, 2,6-dimethyl-4-(3'-trifluoromethylphenyl)-1,4-dihydropyridine-3,5-dicarboxylic acid 3-isopropyl ester 5-allyl ester] | ≥ 3.1 | > 3000 | 0.05 | – | – | –
16 | C#CCOC(=O)C1=C(C)NC(C)=C(C(=O)OC)C1c1ccccc1F (stereo not shown) [Example 16, 2,6-dimethyl-4-(2'-fluorophenyl)-1,4-dihydropyridine-3,5-dicarboxylic acid 3-propargyl ester 5-methyl ester] | ≥ 10 | 200 | 0.05 | – | – | –
17 | C=CCOC(=O)C1=C(C)NC(C)=C(C(=O)OCC)C1c1cccc(Cl)c1 (stereo not shown) [Example 17, 2,6-dimethyl-4-(3'-chlorophenyl)-1,4-dihydropyridine-3,5-dicarboxylic acid 3-allyl ester 5-ethyl ester] | ≥ 10 | > 3000 | 0.01 | – | – | –
18 | C#CCOC(=O)C1=C(C)NC(C)=C(C(=O)OCC)C1c1ccccc1OC (stereo not shown) [Example 18, 2,6-dimethyl-4-(2'-methoxyphenyl)-1,4-dihydropyridine-3,5-dicarboxylic acid 3-propargyl ester 5-ethyl ester] | ≥ 10 | 3000 | 0.05 | – | – | –
19 | C#CCOC(=O)C1=C(C)NC(C)=C(C(=O)OCC)C1c1ccc(C(=O)OCC)cc1 (stereo not shown) [Example 19, 2,6-dimethyl-4-(4'-carboxyethylphenyl)-1,4-dihydropyridine-3,5-dicarboxylic acid 3-propargyl ester 5-ethyl ester] | – | 3000 | – | – | – | –
